PubChem BioAssay AID1996
≈ marks a conversion by molar mass, not a printed value.

Conditions: buffer; pH 7.4; 200.0 µM

| Compound | solubility kinetic [µg/mL] |
| --- | --- |
| COc1cccc(OCC(=O)N(C)Cc2nc(-c3ccccc3)no2)c1 | 36.6 (≈ 104 µM) |
| COc1ccc(OCC(=O)N2CCCC2=O)c([N+](=O)[O-])c1 | 42.8 (≈ 145 µM) |
| CC(=O)c1cccc(S(=O)(=O)N2CCC(C(=O)O)CC2)c1 | > 46.7 |
| Fc1ccccc1-c1nc(-c2ccc(Br)o2)no1 | < 0.3 |
| Cc1ccc(S(=O)(=O)N2CCN(c3cccc(C)c3)CC2)cc1 | < 0.4 |
| CCOC(=O)N1CCN(CCC(=O)c2ccc(Cl)cc2)CC1.Cl | > 48.7 |
| CC(C)n1c(NCCO)nc2ccccc21 | > 32.9 |
| CCOc1ccc(N(CC(=O)N2CCCCCC2)S(C)(=O)=O)cc1 | 31 (≈ 87.5 µM) |
| CC1CCCN(c2cc(N(C)CCO)c([N+](=O)[O-])c3nonc23)C1 (stereo unspecified) | > 50.3 |
| COc1ccc(S(=O)(=O)N(C)CC(=O)NC2CC2)cc1OC | > 49.3 |
| O=S(=O)(c1ccccc1)N1CC=C(c2ccccc2)CC1 | 1.1 (≈ 3.67 µM) |
| CCOCCCNC(=O)/C(C#N)=C/c1ccccc1F | > 41.4 |
| Cc1ccc(NC(=O)CCOc2ccccc2C)cc1F | 2.5 (≈ 8.7 µM) |
| c1ccc(-c2ccc(CN3CCSCC3)cc2)cc1 | 1.7 (≈ 6.31 µM) |
| CCOc1ccc2nc(NC(=O)C3CCCO3)sc2c1 (stereo unspecified) | > 43.9 |
| CC(NS(=O)(=O)c1ccccc1)C(=O)NC1CCCC1 (stereo unspecified) | > 44.5 |
| CCc1ccc(OCC2Cn3c(nc4c3c(=O)[nH]c(=O)n4C)O2)cc1 (stereo unspecified) | 3.8 (≈ 11.1 µM) |
| CN(C)CCn1c(N)nc2ccccc21 | > 30.6 |
| CCc1ccccc1NC(=O)NCc1ccc2c(c1)OCO2 | 0.7 (≈ 2.35 µM) |
| Cc1ccc(C)c(OCC(O)CNC2CCCC2)c1.Cl (stereo unspecified) | > 45 |
| CNc1c(NC(=O)C2CCC(C)CC2)c(=O)oc2ccccc12 (stereo unspecified) | 1.8 (≈ 5.73 µM) |
| CCOC(=O)Cc1csc(CC(N)=O)[nH+]1.[Cl-] | > 39.7 |

| Compound | solubility kinetic [µg/mL] |
| --- | --- |
| CCOc1ccc(CSCCNC(=S)Nc2ccc(OC)cc2)cc1 | 1.1 (≈ 2.92 µM) |
| Cc1c(Cl)cccc1NC(=O)C1CCN(S(C)(=O)=O)CC1 | 16.9 (≈ 51.1 µM) |
| CC(Cc1ccccc1)C(=O)Nc1ccc(Br)cc1 (stereo unspecified) | 3.2 (≈ 10.1 µM) |
| COC(=O)c1ccccc1NC(=O)COC(=O)[C@H](C)NC(N)=O | > 48.5 |
| O=C(O)c1cc(S(=O)(=O)N2CCCCC2)ccc1N1CCOCC1 | > 53.2 |
| Cc1cc(=O)oc2cc(OCC(=O)N3CCCC3)ccc12 | > 43.1 |
| Cc1cc(NC(=O)Nc2ccc(Cl)cc2)no1 | 1.4 (≈ 5.56 µM) |
| COc1cc(C(=S)N2CCCC2)ccc1OCc1ccccc1 | 1.5 (≈ 4.58 µM) |
| O=Cc1c(NCCc2ccc(F)cc2)c2ccccc2[nH]c1=O | 34.8 (≈ 112 µM) |
| O=[N+]([O-])c1ccc(OCCn2cnc3ccccc32)cc1 | 7.6 (≈ 26.8 µM) |
| Cc1cc(C(=O)OCC(=O)N2CCCCCC2)ccc1[N+](=O)[O-] | > 48.1 |
| C/C(N)=C(/C#N)C(=O)COC(=O)c1cccc(C)c1O | 1.5 (≈ 5.47 µM) |
| CCS(=O)(=O)Nc1cccc(-c2nc3cccnc3s2)c1 | 45.4 (≈ 142 µM) |
| CCc1ccc(S(=O)(=O)Nc2ccc(N3CCN(C)CC3)cc2)cc1 | 50.8 (≈ 141 µM) |
| COc1ccc(Cl)cc1NC(=O)NCc1ccc2c(c1)OCO2 | < 0.4 |
| Cc1ccc(NC(=S)c2ccncc2)cc1 | 33.5 (≈ 147 µM) |
| CC1(C(=O)NCC2CCCO2)Oc2cccnc2NC1=O (stereo unspecified) | > 43.7 |
| COC(=O)C(NC(C)=O)(Nc1cc(C)ccn1)C(F)(F)F (stereo unspecified) | 40.7 (≈ 133 µM) |
| O=C(CC(c1ccccc1)c1ccccc1O)N1CCCCC1 (stereo unspecified) | > 46.4 |
| CC1(O)CCN2C(=O)CCc3cccc1c32 (stereo unspecified) | 19.3 (≈ 88.8 µM) |
| O=C(c1ccco1)c1cn(CC(=O)N2CCCC2)c2ccccc12 | > 48.4 |
| NS(=O)(=O)c1ccc(CCNc2ccc(C(F)(F)F)cn2)cc1 | 48.1 (≈ 139 µM) |

| Compound | solubility kinetic [µg/mL] |
| --- | --- |
| CC(Sc1nc2ccc(C(=O)c3ccccc3)cc2[nH]1)C(=O)O (stereo unspecified) | > 49 |
| Cc1cccc(-c2nsc(SCC(=O)NCC3CCCO3)n2)c1 (stereo unspecified) | > 52.4 |
| Cc1nc(-c2ccccc2)nc2sc(C(=O)c3ccc(F)cc3)c(N)c12 | 1.5 (≈ 4.13 µM) |
| CCOC(=O)c1ccc(NC(=O)C2CC3CCC2C3)cc1 (stereo unspecified) | 22.2 (≈ 77.3 µM) |
| Cc1c(NS(=O)(=O)c2cc(C(=O)N(C)Cc3ccccc3)ccc2Cl)c(=O)n(-c2ccccc2)n1C | > 78.8 |
| O=C(NCCc1ccccc1F)C1CC(=O)N(c2ccccc2)C1 (stereo unspecified) | 47.8 (≈ 146 µM) |
| CN(Cc1ccccc1)C1CCNCC1.Cl | > 41.6 |
| CCOC(=O)c1ccc(NC(=O)CCC(=O)NCc2ccco2)cc1 | 4.7 (≈ 13.6 µM) |
| Cc1cc(C)cc(NC(=S)NC2CC3CCCC(C2)N3C2CC2)c1 (stereo unspecified) | > 51.5 |
| O=C(Nc1cscc1S(=O)(=O)c1ccc(Cl)cc1)c1ccccc1Cl | 2.6 (≈ 6.31 µM) |
| Cc1ccc(S(=O)(=O)N2CCCCC2C(=O)Nc2ccc(N(C)C)cc2)cc1 (stereo unspecified) | 5.7 (≈ 14.2 µM) |
| Oc1ccc(Br)cc1CNc1cnc2ccccc2c1 | 1 (≈ 3.04 µM) |
| CCOC(=O)c1cc(CC)sc1NC(=O)COC(=O)C1CCC1 | < 0.7 |
| Cc1ccsc1-c1nc(CN2CCCC2c2ccc(F)cc2)c(C)o1 (stereo unspecified) | 14.9 (≈ 41.8 µM) |
| O=C(CN1C(=O)NC2(CCCC2)C1=O)Nc1nc(-c2ccccc2)cs1 | 1.7 (≈ 4.59 µM) |
| CCN1C(=O)C(C(=O)c2ccccc2)SC1=S (stereo unspecified) | 38.4 (≈ 145 µM) |
| Cc1cc(C)nc(NC(=O)CSc2ncccn2)n1 | > 41.3 |
| CC(=O)C1=C(C)NC2=C(C(=O)CC(C)(C)C2)C1C (stereo unspecified) | > 37.1 |
| Cl.OC(CNCc1ccncc1)c1ccccc1 (stereo unspecified) | > 39.7 |
| O=C(O)C1CCN(C(=O)Cc2ccccc2)CC1 | > 37.1 |
| COc1ccc(N2C(=O)C3CCCN3C2=S)cc1 (stereo unspecified) | > 39.3 |
| Cc1ccc(C)c(CSC2=NCCN2C(=O)c2cccs2)c1 | 1 (≈ 3.03 µM) |

| Compound | solubility kinetic [µg/mL] |
| --- | --- |
| O=[N+]([O-])c1ccc(NS(=O)(=O)N2CCOCC2)cc1 | > 43.1 |
| Cc1csc(Nc2nc(N)c(C(=O)Nc3ccccc3)o2)n1 | 3.3 (≈ 10.5 µM) |
| O=C(/C=C/c1ccco1)Nc1scc(-c2ccccc2)c1C(=O)O | 48.9 (≈ 144 µM) |
| O=C(Nc1ccccc1)[C@@H]1CCCN1S(=O)(=O)c1ccc(Cl)cc1 | 6.8 (≈ 18.6 µM) |
| O=[N+]([O-])c1ccc(CSc2ccc(S(=O)(=O)N3CCCCC3)cn2)cc1 | 2.4 (≈ 6.1 µM) |
| COc1c(C(=O)Nc2nccs2)ccc2ccccc12 | 17 (≈ 59.8 µM) |
| CC(=O)N1CCC(N(C(=O)Nc2ccc(Cl)cc2)C(C)C)CC1 | > 50.7 |
| N#Cc1ccc(-c2cccnc2)nc1SCC(N)=O | 38.2 (≈ 141 µM) |
| CN1C(=O)S/C(=C/c2ccc(OCc3cccc(C(=O)O)c3)cc2)C1=O | 10.6 (≈ 28.7 µM) |
| CCOc1ccc(/C=C\c2nc(O)c([N+](=O)[O-])c(=O)[nH]2)cc1OCC | 29 (≈ 83.5 µM) |
| O=C(COC(=O)c1cccc(Br)c1)NCC1CCCO1 (stereo unspecified) | > 51.3 |
| COc1cccc(NC(=O)c2ccc3c(c2)OCCO3)c1 | > 42.8 |
| Cc1ccc(N2C(=O)CSC2=S)cc1C | < 0.5 |
| Fc1ccccc1CNCCc1ccc2c(c1)OCO2 | 40.5 (≈ 148 µM) |
| CCN1CCN(S(=O)(=O)Cc2ccccc2Cl)CC1 | > 45.4 |
| CC(C)NC(=O)c1ccccc1NC(=O)Cc1ccc([N+](=O)[O-])cc1 | 19.1 (≈ 56 µM) |
| COc1cc2c(cc1OC)C(c1ccccc1N)=NCC2 | > 42.4 |
| CC1CCN(C(=O)C2COc3ccccc3O2)CC1 (stereo unspecified) | > 39.2 |
| Cn1c(=O)c2c(nc(Cl)n2CCOc2ccccc2)n(C)c1=O | 6.7 (≈ 20 µM) |
| CC(=O)c1ccc(Sc2ccccn2)c([N+](=O)[O-])c1 | 38 (≈ 139 µM) |
